Where “and” joins values, the source holds several entries; their conditions need not be identical. Equal values may be shown once. Numbers after ± are expanded uncertainties.
Assay: xn = mol fraction of the nth substance listed
Details: 100 kPa, Liquid, Electromagnetic levitation / mass taken directly, volume taken from sample image

[Pd] [palladium] + [Fe]
Details	mass density
1414 K, x1 = 0.6	8979 ± 390 kg/m3
1437 K, x1 = 0.6	8950 ± 390 kg/m3
1440 K, x1 = 0.8	9717 ± 240 kg/m3
1476 K, x1 = 0.6	8899 ± 390 kg/m3
1483 K, x1 = 0.6	8904 ± 390 kg/m3
1483 K, x1 = 0.8	9676 ± 240 kg/m3
1500 K, x1 = 0.4	8297 ± 360 kg/m3
1512 K, x1 = 0.4	8275 ± 360 kg/m3
1536 K, x1 = 0.6	8856 ± 390 kg/m3
1543 K, x1 = 0.8	9619 ± 240 kg/m3
1551 K, x1 = 0.6	8825 ± 380 kg/m3
1562 K, x1 = 0.4	8208 ± 360 kg/m3
1590 K, x1 = 0.6	8791 ± 380 kg/m3
1598 K, x1 = 0.8	9769 ± 240 kg/m3
1613 K, x1 = 0.6	8779 ± 380 kg/m3
1613 K, x1 = 0.8	9499 ± 240 kg/m3
1624 K, x1 = 0.8	9547 ± 240 kg/m3
1625 K, x1 = 0.4	8150 ± 360 kg/m3
1625 K, x1 = 0.8	9735 ± 240 kg/m3
1630 K, x1 = 0.2	7824 ± 210 kg/m3
1633 K, x1 = 0.6	8756 ± 380 kg/m3
1651 K, x1 = 0.2	7615 ± 200 kg/m3
1663 K, x1 = 0.6	8735 ± 380 kg/m3
1665 K, x1 = 0.8	9694 ± 250 kg/m3
1667 K, x1 = 0.6	8709 ± 380 kg/m3
1668 K, x1 = 0.2	7805 ± 210 kg/m3
1672 K, x1 = 0.8	9450 ± 240 kg/m3
1681 K, x1 = 0.2	7789 ± 210 kg/m3 and 7591 ± 200 kg/m3
1707 K, x1 = 0.8	9656 ± 250 kg/m3
1711 K, x1 = 0.4	8076 ± 350 kg/m3
1713 K, x1 = 0.2	7775 ± 210 kg/m3
1715 K, x1 = 0.6	8695 ± 380 kg/m3
1721 K, x1 = 0.2	7550 ± 200 kg/m3
1725 K, x1 = 0.6	8660 ± 380 kg/m3
1742 K, x1 = 0.2	7739 ± 210 kg/m3
1749 K, x1 = 0.8	9379 ± 240 kg/m3
1767 K, x1 = 0.8	9602 ± 250 kg/m3
1772 K, x1 = 0.2	7506 ± 200 kg/m3
1789 K, x1 = 0.6	8633 ± 380 kg/m3
1790 K, x1 = 1	10670 ± 170 kg/m3
1795 K, x1 = 1	10672 ± 170 kg/m3
1796 K, x1 = 1	10652 ± 170 kg/m3
1802 K, x1 = 1	10686 ± 170 kg/m3
1809 K, x1 = 1	10670 ± 170 kg/m3
1820 K, x1 = 1	10677 ± 180 kg/m3
1829 K, x1 = 0.4	7971 ± 350 kg/m3
1831 K, x1 = 1	10627 ± 180 kg/m3
1832 K, x1 = 0.4	7965 ± 350 kg/m3
1832 K, x1 = 0.8	9536 ± 250 kg/m3
1838 K, x1 = 0.2	7700 ± 210 kg/m3
1841 K, x1 = 0.8	9278 ± 240 kg/m3
1843 K, x1 = 1	10654 ± 180 kg/m3
1856 K, x1 = 1	10601 ± 180 kg/m3
1864 K, x1 = 0.2	7646 ± 210 kg/m3
1872 K, x1 = 0.2	7426 ± 200 kg/m3
1878 K, x1 = 1	10558 ± 180 kg/m3
1879 K, x1 = 0.6	8530 ± 380 kg/m3
1889 K, x1 = 0.6	8544 ± 380 kg/m3
1889 K, x1 = 1	10592 ± 180 kg/m3
1890 K, x1 = 1	10575 ± 180 kg/m3
1916 K, x1 = 0.8	9434 ± 250 kg/m3
1917 K, x1 = 1	10529 ± 180 kg/m3
1935 K, x1 = 1	10478 ± 180 kg/m3
1951 K, x1 = 1	10465 ± 180 kg/m3

Reference: the NIST ThermoML archive (doi:10.1016/j.jct.2018.09.037)
